Assay results published in PubChem BioAssay AID256 (DTP/NCI, 2004).
Several values for one entry are separate records, joined by “and”; a condition that tells them apart may be missing. Equal entries are not always repeated. Toxic doses and inconclusive results are not listed. Rule for the calls: active = survival T/C of 150% or more; inactive = T/C below 125% in these data.

Test system: CD2F1 mice, L1210 leukemia ip, survival T/C
Assay: NCI In Vivo Anticancer Drug Screen. Data for tumor model L1210 Leukemia (intraperitoneal) in CD2F1 (CDF1) mice
Details: higher = longer survival
In short: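 Transplantable tumor in mice; compound-treated vs vehicle-treated groups. Read-out = treated/control ratio of the measured endpoint.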

[1] = endpoint: mean survival time, dose: 50.0 mg/kg/injection, schedule: Q04DX002 (ip), vehicle: saline with Tween-80
[2] = endpoint: mean survival time, dose: 100.0 mg/kg/injection, schedule: Q04DX002 (ip), vehicle: saline with Tween-80
[3] = endpoint: mean survival time, dose: 200.0 mg/kg/injection, schedule: Q04DX002 (ip), vehicle: saline with Tween-80
[4] = endpoint: mean survival time, dose: 400.0 mg/kg/injection, schedule: Q04DX002 (ip), vehicle: saline with Tween-80
[5] = endpoint: mean survival time, dose: 100.0 mg/kg/injection, schedule: Q01DX001 (ip), vehicle: saline
[6] = endpoint: mean survival time, dose: 25.0 mg/kg/injection, schedule: Q01DX009 (ip), vehicle: saline with Tween-80
[7] = endpoint: mean survival time, dose: 50.0 mg/kg/injection, schedule: Q01DX009 (ip), vehicle: saline with Tween-80
[8] = endpoint: mean survival time, dose: 100.0 mg/kg/injection, schedule: Q01DX009 (ip), vehicle: saline with Tween-80
[9] = endpoint: mean survival time, dose: 100.0 mg/kg/injection, schedule: Q04DX003 (ip), vehicle: saline with Tween-80
[10] = endpoint: mean survival time, dose: 200.0 mg/kg/injection, schedule: Q01DX009 (ip), vehicle: saline with Tween-80
[11] = endpoint: mean survival time, dose: 200.0 mg/kg/injection, schedule: Q04DX003 (ip), vehicle: saline with Tween-80
[12] = endpoint: mean survival time, dose: 400.0 mg/kg/injection, schedule: Q04DX003 (ip), vehicle: saline with Tween-80
[13] = endpoint: mean survival time, dose: 400.0 mg/kg/injection, schedule: Q01DX009 (ip), vehicle: saline with Tween-80

Measured: T/C

CC(C)(O)C#CC(C)(C)O
inactive: endpoint: mean survival time, dose: 100.0 mg/kg/injection, schedule: Q04DX003 (ip), vehicle: saline 101 % of control | endpoint: mean survival time, dose: 200.0 mg/kg/injection, schedule: Q04DX003 (ip), vehicle: saline 101 % of control | endpoint: mean survival time, dose: 400.0 mg/kg/injection, schedule: Q04DX003 (ip), vehicle: saline 97 % of control

CN1C(=O)C=CC1=O (tested in a mixture with another compound)
inactive: endpoint: mean survival time, dose: 25.0 mg/kg/injection, schedule: Q04DX002 (ip), vehicle: saline with Tween-80 103 % of control | [1] 91 % of control | [2] 95 % of control | [3] 91 % of control

COC(=O)c1cccn1C(=O)c1cc(OC)c(OC)cc1[N+](=O)[O-]
inactive: [1] 96 % of control | [2] 92 % of control and 93 % of control | [3] 96 % of control | [4] 89 % of control

Nc1c(C(=O)O)ncn1C1OC(CO)C(O)C1O (stereo not drawn)
inactive: endpoint: median survival time, dose: 7.88 mg/kg/injection, schedule: Q01DX005 (ip), vehicle: saline 101 % of control | endpoint: median survival time, dose: 15.75 mg/kg/injection, schedule: Q01DX005 (ip), vehicle: saline 104 % of control | endpoint: median survival time, dose: 31.5 mg/kg/injection, schedule: Q01DX005 (ip), vehicle: saline 104 % of control | endpoint: median survival time, dose: 63.0 mg/kg/injection, schedule: Q01DX005 (ip), vehicle: saline 103 % of control | endpoint: median survival time, dose: 126.0 mg/kg/injection, schedule: Q01DX005 (ip), vehicle: saline 92 % of control

CC(=O)c1ccc2c3ccccc3n(C)c2c1
inactive: endpoint: mean survival time, dose: 50.0 mg/kg/injection, schedule: Q01DX009 (ip), vehicle: Klucel (hydroxypropylcellulose) (HPC) 93 % of control | endpoint: mean survival time, dose: 100.0 mg/kg/injection, schedule: Q01DX009 (ip), vehicle: Klucel (hydroxypropylcellulose) (HPC) 93 % of control | endpoint: mean survival time, dose: 200.0 mg/kg/injection, schedule: Q01DX009 (ip), vehicle: Klucel (hydroxypropylcellulose) (HPC) 93 % of control

CC(C)(C)N1CCc2cc3c(cc2C1)OCO3
inactive: endpoint: mean survival time, dose: 50.0 mg/kg/injection, schedule: Q01DX001 (ip), vehicle: saline 100 % of control | endpoint: mean survival time, dose: 75.0 mg/kg/injection, schedule: Q01DX001 (ip), vehicle: saline 103 % of control | [5] 96 % of control and 97 % of control

Cn1nc(-c2ccccc2)nc1[N+](=O)[O-]
inactive: endpoint: mean survival time, dose: 12.5 mg/kg/injection, schedule: Q01DX009 (ip), vehicle: saline with Tween-80 90 % of control and 103 % of control | [6] 97 % of control | [7] 103 % of control and 106 % of control | [8] 121 % of control and 100 % of control

Oc1ccccc1/C=N\Nc1ccccc1
inactive: endpoint: mean survival time, dose: 100.0 mg/kg/injection, schedule: Q01DX009 (ip), vehicle: saline 98 % of control | endpoint: mean survival time, dose: 200.0 mg/kg/injection, schedule: Q01DX009 (ip), vehicle: saline 98 % of control | endpoint: mean survival time, dose: 400.0 mg/kg/injection, schedule: Q01DX009 (ip), vehicle: saline 102 % of control

CCCC1=CC(C)(C)CC(C)=C1 (tested in a mixture with another compound)
inactive: [7] 98 % of control | [8] 96 % of control | [9] 102 % of control | [10] 100 % of control | [11] 100 % of control

CC[C@]1(O)C[C@H](OC2CC(N(C)C)C(OC3CC(O)C(O)C(C)O3)C(C)O2)c2c(cc3c(c2O)C(=O)c2c(O)ccc(O)c2C3=O)[C@H]1C(=O)OC (stereo partly drawn)
inactive: endpoint: mean survival time, dose: 0.12 mg/kg/injection, schedule: Q01DX009 (ip), vehicle: Klucel (hydroxypropylcellulose) (HPC) 114 % of control and 109 % of control and 110 % of control

COc1cc2c(cc1OC)C1=NN(c3ccccc3)C(=O)C1CC2 (stereo not drawn)
inactive: [2] 103 % of control | [3] 95 % of control | [4] 95 % of control

CCC1=C(C)C(=O)Nc2c3ncnc-3ncn2C1O (stereo not drawn)
inactive: [7] 104 % of control | [8] 101 % of control | [10] 102 % of control

CC(=O)Oc1ccccc1C(CC(C)C)OC(C)=O (stereo not drawn)
inactive: [5] 96 % of control | endpoint: mean survival time, dose: 200.0 mg/kg/injection, schedule: Q01DX001 (ip), vehicle: saline 96 % of control

c1ccc(NC(Nc2ccccn2)c2ccncc2)nc1
inactive: endpoint: mean survival time, dose: 54.25 mg/kg/injection, schedule: Q04DX003 (ip), vehicle: saline with Tween-80 97 % of control | [9] 102 % of control | endpoint: mean survival time, dose: 108.5 mg/kg/injection, schedule: Q04DX003 (ip), vehicle: saline with Tween-80 103 % of control | [11] 108 % of control | endpoint: mean survival time, dose: 217.0 mg/kg/injection, schedule: Q04DX003 (ip), vehicle: saline with Tween-80 102 % of control | [12] 110 % of control | endpoint: mean survival time, dose: 434.0 mg/kg/injection, schedule: Q04DX003 (ip), vehicle: saline with Tween-80 100 % of control | endpoint: mean survival time, dose: 600.0 mg/kg/injection, schedule: Q04DX003 (ip), vehicle: saline with Tween-80 113 % of control

CCOC(C(=O)OC1CCN(C)CC1)(c1ccccc1)c1ccccc1
inactive: [6] 98 % of control | [7] 98 % of control | [8] 93 % of control

COC(=O)c1cccc2c(Cl)cc3ccccc3c12
inactive: [8] 105 % of control | [9] 98 % of control | [10] 105 % of control | [11] 104 % of control | [13] 103 % of control | [12] 97 % of control

COc1ccc(C2OC(=O)c3cccnc32)cc1OC (stereo not drawn)
inactive: endpoint: mean survival time, dose: 12.5 mg/kg/injection, schedule: Q01DX009 (ip), vehicle: other 90 % of control | endpoint: mean survival time, dose: 50.0 mg/kg/injection, schedule: Q01DX009 (ip), vehicle: other 87 % of control | endpoint: mean survival time, dose: 200.0 mg/kg/injection, schedule: Q01DX009 (ip), vehicle: other 88 % of control

O=C(c1ccccc1)c1c[nH]c2ccccc12
inactive: [9] 100 % of control | [11] 86 % of control | [12] 90 % of control

COC(=O)C1C(C(=O)OC)C2C3C4C1C1C2C1C43 (stereo not drawn)
inactive: [9] 102 % of control | [11] 102 % of control | [12] 104 % of control

COC(=O)C(C)NC(=O)OCc1ccccc1 (stereo not drawn)
inactive: [9] 96 % of control | [11] 98 % of control | [12] 101 % of control

CCC12CCC(=O)C=C1CCCC2=O (stereo not drawn)
inactive: endpoint: mean survival time, dose: 100.0 mg/kg/injection, schedule: Q04DX003 (ip), vehicle: saline sonified 95 % of control

CN(C)N=Nc1cccc(Cl)c1
inactive: endpoint: mean survival time, dose: 79.0 mg/kg/injection, schedule: Q01DX009 (ip), vehicle: Klucel (hydroxypropylcellulose) (HPC) 111 % of control | endpoint: mean survival time, dose: 118.0 mg/kg/injection, schedule: Q01DX009 (ip), vehicle: Klucel (hydroxypropylcellulose) (HPC) 108 % of control | endpoint: mean survival time, dose: 177.0 mg/kg/injection, schedule: Q01DX009 (ip), vehicle: Klucel (hydroxypropylcellulose) (HPC) 123 % of control | endpoint: mean survival time, dose: 266.0 mg/kg/injection, schedule: Q01DX009 (ip), vehicle: Klucel (hydroxypropylcellulose) (HPC) 108 % of control

O=C(Nc1ccc(Cl)c(C(F)(F)F)c1)Nc1c(Oc2ccc(Cl)c(Cl)c2)ccc(Cl)c1S(=O)(=O)O
inactive: endpoint: mean survival time, dose: 12.5 mg/kg/injection, schedule: Q01DX009 (ip), vehicle: saline 100 % of control | endpoint: mean survival time, dose: 25.0 mg/kg/injection, schedule: Q01DX009 (ip), vehicle: saline 98 % of control | endpoint: mean survival time, dose: 50.0 mg/kg/injection, schedule: Q01DX009 (ip), vehicle: saline 100 % of control

COC(=O)C1C2C=CC(C3C=CC32)C1C(=O)OC (stereo not drawn)
inactive: [8] 97 % of control | [10] 94 % of control | [13] 95 % of control
